Results published in article PMC5659721 (Journal of medicinal chemistry, 2017).

Tests used:
[1] = molecular target: T1, wild-type TTR (Homo sapiens, UniProt P02766); assay: Co-crystallography / X-ray diffraction analysis of TTR·ligand complexes; details: co-crystal structures
[2] = molecular target: T1, wild-type TTR; assay: Competitive fluorescence; type: binding; details: 5 vs 1, 6 vs 2
[3] = molecular target: TTR (Homo sapiens, UniProt P02766); assay: Reversibility of binding assessed with mass spectrometry; details: mass spectrometry (Figure S3)
[4] = molecular target: T1, wild-type TTR; details: orientation in T4-binding site; cited from earlier work

Compound | covalent interaction / boronic ester formation with binding-pocket residues [1] | further results
OB(O)c1ccc(/C=C/c2cc(O)cc(O)c2)cc1 [Compound 2, 5-[(1E)-2-(4-Boronic acid)ethenyl]-1,3-benzenediol] | did not exhibit covalent interactions | –
OB(O)c1ccc(/C=C/c2cc(O)cc(O)c2)c(Cl)c1 [Compound 4, 5-[(1E)-2-(2-Chloro-4-boronic Acid)ethenyl]-1,3-benzenediol] | did not exhibit covalent interactions | –
O=C(O)c1cccc(/C=C/c2ccc(O)cc2)c1 [Compound 5, 3-[(1E)-2-(4-Hydroxyphenyl)ethenyl]-benzoic Acid] | – | Kd,2 fold higher than those of stilbenes 1 and 2, respectively [2]: 3 fold
O=C(O)c1cccc(/C=C/c2ccc(B(O)O)cc2)c1 [Compound 6, 3-[(1E)-2-(4-Boronic acid)ethenyl]-benzoic Acid] | did not exhibit covalent interactions | Kd,2 fold higher than those of stilbenes 1 and 2, respectively [2]: 2 fold
O=C(O)c1cccc(/C=C/c2ccc(B(O)O)cc2Cl)c1 [Compound 8, 3-[(1E)-2-(2-Chloro-4-boronic Acid)ethenyl]-benzoic] | did not exhibit covalent interactions | –
OB(O)c1ccc(/C=C/c2ccc(B(O)O)cc2Cl)c(Cl)c1 [Compound 10, 1,1′-(1E)-(1,2-Ethenediyl)bis[2-chloro-4-boronic acid]-benzene] | – | reversibility of binding with TTR [3]: reversible
O=C(O)c1ccc2nc(-c3cc(Cl)cc(Cl)c3)oc2c1 [Compound 12, 2-(3,5-dichlorophenyl)-6-benzoxazolecarboxylic acid] | – | binding mode [4]: forward ^d
